Results taken from patent US7772425B2, “Vitamin D receptor modulators” (Eli Lilly and Company, priority 2002, dated 2010).
pEC50, pIC50: −log10 of the molar value. Values joined by “and” are separate entries in the source; they are usually repeats but may differ in a detail not shown here. Equal values may be shown once. Read-outs that look alike come from different tables or passages of the source.

Legend:
[1] = tested on: female DBF mice; assay: Mouse hypercalcemia assay; assay type: in vivo; settings: orally via gavage for 6 days; serum ionized calcium 6 hours after last dosing
Text: 4. The Mouse Hypercalcemia Assay
(4) Materials and Method for The Mouse Hypercalcemia Assay: […]

[2] = tested on: KERtr cells (Human skin keratinocyte); assay: Keratinocyte proliferation assay; assay type: cell-based; settings: BrdU incorporation, read-out: Kera. Prolif. IC50
Experimental: 5. The Keratinocyte Proliferation Assay
This Assay is indicative for the treatment of psoriasis.
(5) The Keratinocyte Proliferation Assay:
KERtr cells (Human skin keratinocyte transformed with a retrovirus vector, obtained from ATCC) were plated in 96-well flat-bottomed plates (3000 cells/well) in 100 μl keratinocyte serum free medium supplemented with bovine pituitary extract in the absence of EGF (Life Technologies, Rockville, Md.) and incubated at 37° C. for two days. The cells were treated with various concentrations of VDR ligands (ten-fold serial dilution from 10,000 nM to 0.1 nM in triplicate), dissolved in 100 μl keratinocyte serum free medium supplemented with bovine pituitary extract in the absence of EGF and incubated at 37° C. for 72 hr. BrdU (5-bromo-2′-deoxyuridine) incorporation was analyzed as a measure of DNA replication (Cell proliferation ELISA kit, Roche Diagnostics, Indianapolis, Ind.) and absorbance was measured at 405 nm. Potency values (IC50) values were determined as the concentration (nM) of compound that elicited a half-maximal response.

[3] = tested on: rat osteocalcin promoter; assay: OCN (osteocalcin) promoter assay in RG-15 (ROS 17/2.8) cells; assay type: cell-based; settings: 48 hr treatment, luciferase
Experimental: 3. The OCN (Osteocalcin) Promoter Assay
The OCN Promoter Assay is an indicator and marker for osteoporosis. […] Preferred assay results are less than 50 nM.
(3) Materials and Method for The OCN Promoter Assay:
The activation of osteocalcin by VDR ligands was evaluated in a rat osteoblast-like cell line RG-15 (ROS 17/2.8) stably expressing rat osteocalcin promoter fused with luciferase reporter gene. […] Confluent RG-15 cells maintained in DMEM/F-12 medium (3:1) containing 5% FBS, 300 μg/ml G418 and at 37° C. under 5% CO2/95% air atmosphere were trypsinized (0.25% trypsin) and plated into white opaque 96-well cell culture plates (25000 cells/well). After 24 hr, cells (in DMEM/F-12 medium+2% FBS) were treated with various concentrations of compounds, dissolved in DMSO. The final DMSO concentration remained at 0.01% (v/v). After 48 hr treatment, the medium was removed, cells were lysed with 50 μl of lysis buffer (From Luciferase reporter assay system, Roche Diagnostics, Indianapolis, Ind.) and assayed for luciferase activity using the Luciferase Reporter Gene Assay kit from Boehringer Mannheim as per manufacturer's specifications.

[4] = Homo sapiens, Keratinocyte, 72 h

CCC(CC)(c1ccc(OC(C)C(O)C(C)(C)C)c(C)c1)c1ccc(C(=O)N(C)CC(=O)O)c(C)c1 (single isomer, unassigned) [Ex. 53, [(4-{1-Ethyl-1-[4-(2-hydroxy-1,3,3-trimethyl-butoxy)-3-methyl-phenyl]-propyl}-2-methyl-benzoyl)-methyl-amino]-acetic acid]
Mouse Hypercal [1]: >3000 µg/kg/day | pIC50 ([2]; 72 hr): 6.65

CCC(CC)(c1ccc(OC(C)C(O)C(C)(C)C)c(C)c1)c1ccc(C(=O)N[C@H](C)C(=O)O)c(C)c1 (some centres unmarked) [Ex. 48, (D)-2-(4-{1-ethyl-1-[4-(2-hydroxy-1,3,3-trimethyl-butoxy)-3-methyl-phenyl]-propyl}-2-methyl-benzoylamino)-propionic acid]
Mouse Hypercal [1]: <1000 µg/kg/day | pIC50 ([2]; 72 hr): 6.00

CCC(CC)(c1ccc(CCC(=O)N(C)C)c(C)c1)c1ccc(OCC(O)C(C)(C)C)c(C)c1 (centres unmarked) [Ex. 8, 3′-[4-(2-hydroxy-3,3-dimethylbutoxy)-3-methylphenyl]-3′-[4-(2-dimethylcarbamoylethyl)-3-methylphenyl]pentane]
Mouse Hypercal [1]: 100 µg/kg/day | pIC50 [2, 4]: 6.48

CCC(CC)(c1ccc(OCC(=O)C(C)(C)C)c(C)c1)c1ccc(OCC(=O)C(C)(C)C)c(C)c1 [DD, reference compound]
pEC50 ([3]; Rattus norvegicus, 48 h): 7.51 | Mouse Hypercal [1]: 1000 µg/kg/day | pIC50 [2, 4]: 5.97

CCC(CC)(c1ccc(OCC(O)C(C)(C)C)c(C)c1)c1ccc(C(=O)NS(C)(=O)=O)c(C)c1 (centres unmarked) [Ex. 5]
pEC50 ([3]; Rattus norvegicus, 48 h): 7.38 | Mouse Hypercal [1]: 100 µg/kg/day | pIC50 [2, 4]: 6.43

CCC(CC)(c1ccc(C(=O)O)cc1)c1ccc(OCC(O)C(C)(C)C)c(Cl)c1 (single isomer, unassigned) [Ex. 36, 3′-[3-chloro-4-(2-hydroxy-3,3-dimethylbutoxy)phenyl]-3′-[4-carboxyphenyl]pentane]
Mouse Hypercal [1]: >300 µg/kg/day | pIC50 ([2]; 72 hr): 6.86

CCC(CC)(c1ccc(OCC(=O)C(C)(C)C)c(C)c1)c1ccc(C(=O)O)c(C)c1 [Ex. 17, 4-{1-[4-(3,3-dimethyl-2-oxobutoxy)-3-methylphenyl]-1-ethylpropyl}-2-methylbenzoic acid]
Mouse Hypercal [1]: >3000 µg/kg/day | pIC50 [2, 4]: 6.00

CCC(CC)(c1ccc(OCC(O)C(C)(C)C)c(C)c1)c1ccc(C(=O)O)c(Cl)c1 (racemic) [Ex. 39, 3′-[3-methyl-4-(2-hydroxy-3,3-dimethylbutoxy)phenyl]-3′-(3-chloro-4-carboxyphenyl)pentane]
pEC50 [3]: 7.21 | pEC50 ([3]; Rattus norvegicus, 48 h): 7.13 | pIC50 [2, 4]: 6.29

CCC(CC)(c1ccc(OCC(=O)C(C)(C)C)c(C)c1)c1ccc(OC[C@H](O)C(C)(C)C)c(C)c1 [EE, reference compound]
pEC50 ([3]; Rattus norvegicus, 48 h): 6.47 | Mouse Hypercal [1]: 1000 µg/kg/day

CCC(CC)(c1ccc(OCC(O)C(C)(C)C)c(C)c1)c1ccc(C(=O)Nc2nnn[nH]2)c(C)c1 (single isomer, unassigned) [Ex. 12b, 3′-[4-(2-hydroxy-3,3-dimethylbutoxy)-3-methylphenyl]-3′-[4-(tetrazol-5-ylaminocarbonyl)-3-methylphenyl]pentane]
pEC50 [3]: 7.89 and 7.64 | Mouse Hypercal [1]: 300 µg/kg/day

CCC(CC)(c1ccc(CCC(=O)N(C)C)c(C)c1)c1ccc(OCC(=O)C(C)(C)C)c(C)c1 [Ex. 7, 3′-[4-(2-oxo-3,3-dimethylbutoxy)-3-methylphenyl]-3′-[4-(2-dimethylcarbamoylethyl)-3-methylphenyl]pentane]
pEC50 ([3]; Rattus norvegicus, 48 h): 8.40 | pIC50 [2, 4]: 7.74

CCC(CC)(c1ccc(OC(C)C(O)C(C)(C)C)c(C)c1)c1ccc(C(=O)N[C@@H](C)C(=O)O)c(C)c1 (some centres unmarked) [Ex. 49, (L)-2-(4-{1-Ethyl-1-[4-(2-hydroxy-1,3,3-trimethyl-butoxy)-3-methyl-phenyl]-propyl}-2-methyl-benzoylamino)-propionic acid]
pIC50 ([2]; 72 hr): 6.00

CCC(CC)(c1ccc(OC(C)C(O)C(C)(C)C)c(C)c1)c1ccc(C(=O)O)c(C)c1 (single isomer, unassigned) [Ex. 12]
pEC50 [3]: 7.70 and 7.60 | Mouse Hypercal [1]: 4000 µg/kg/day

CCC(CC)(c1ccc(OC(C)C(O)C(C)(C)C)c(C)c1)c1ccc(C(=O)OC)c(C)c1 (single isomer, unassigned) [Ex. 10Db, 3′-[4-(2-hydroxy-1,3,3-trimethylbutoxy)-3-methylphenyl]-3′-[4-methoxycarbonyl-3-methylphenyl]pentane]
pEC50 [3]: 7.82 | pIC50 ([2]; 72 hr): 6.00

CCC(CC)(c1ccc(OCC(O)C(C)(C)C)c(C)c1)c1ccc(C(=O)O)c(C)c1 (single isomer, unassigned) [Ex. 3A]
pEC50 [3]: 7.82 and 7.74 | Mouse Hypercal [1]: 1000 µg/kg/day

CCC(CC)(c1ccc(OC(C)C(O)C(C)(C)C)c(C)c1)c1ccc(C(=O)OC)c(C)c1 (single isomer, unassigned) [Ex. 10Da, 3′-[4-(2-hydroxy-1,3,3-trimethylbutoxy)-3-methylphenyl]-3′-[4-methoxycarbonyl-3-methylphenyl]pentane]
pIC50 [2, 4]: 6.00

CCC(CC)(c1ccc(OCC(O)C(C)(C)C)c(C)c1)c1ccc(C(=O)O)c(C)c1 (single isomer, unassigned) [Ex. 3B]
pEC50 [3]: 7.24 and 7.08 | Mouse Hypercal [1]: 3000 µg/kg/day

CCC(CC)(c1ccc(OCC(O)C(C)(C)C)c(C)c1)c1ccc(C(=O)Nc2nnn[nH]2)c(C)c1 (single isomer, unassigned) [Ex. 27, 3′-[4-(2-hydroxy-3,3-dimethylbutoxy)-3-methylphenyl]-3′-[4-(tetrazol-5-ylaminocarbonyl)-3-methylphenyl]pentane]
pEC50 [3]: 7.89 and 7.64 | Mouse Hypercal [1]: 300 µg/kg/day

CCC(CC)(c1ccc(OC(C)C(O)C(C)(C)C)c(C)c1)c1ccc(C(=O)N[C@@H](C)C(=O)O)c(C)c1 (some centres unmarked) [Ex. 47, (L)-2-(4-{1-Ethyl-1-[4-(2-hydroxy-1,3,3-trimethyl-butoxy)-3-methyl-phenyl]-propyl}-2-methyl-benzoylamino)-propionic acid]
Mouse Hypercal [1]: 3000 µg/kg/day | pIC50 [2, 4]: 6.00

CCC(CC)(c1ccc(C(=O)O)cc1)c1ccc(OCC(O)C(C)(C)C)c(Cl)c1 (racemic) [Ex. 35, 3′-[3-chloro-4-(2-hydroxy-3,3-dimethylbutoxy)phenyl]-3′-[4-carboxyphenyl]pentane]
pEC50 ([3]; Rattus norvegicus, 48 h): 7.57 | pIC50 [2, 4]: 7.40

CCC(CC)(c1ccc(CCC(=O)C(C)(C)C)c(C)c1)c1ccc(C(=O)O)c(C)c1 [Ex. 54, 3′-[4-(3-oxo-4,4-dimethylpentyl)-3-methylphenyl]-3′-[4-carboxyl-3-methylphenyl]pentane]
pEC50 ([3]; Rattus norvegicus, 48 h): 6.92 | Mouse Hypercal [1]: >3000 µg/kg/day

CCC(CC)(c1ccc(OC(C)C(O)C(C)(C)C)c(C)c1)c1ccc(C(=O)O)c(C)c1 (racemic) [Ex. 28, 4-{1-Ethyl-1-[4-(2-hydroxy-1,3,3-trimethyl-butoxy)-3-methyl-phenyl]-propyl}-2-methyl-benzoic acid]
pEC50 [3]: 7.08 | pEC50 ([3]; Rattus norvegicus, 48 h): 6.97 | pIC50 [2, 4]: 6.62

CCC(CC)(c1ccc(OCC(O)C(C)(C)C)c(Cl)c1)c1ccc(C(=O)O)c(Cl)c1 (single isomer, unassigned) [Ex. 42, 3′-[3-chloro-4-(2-hydroxy-3,3-dimethyl-butoxy)phenyl]-3′-(3-chloro-4-carboxyphenyl)pentane]
pIC50 [2, 4]: 7.30

CCC(CC)(c1ccc(OCC(O)C(C)(C)C)c(C)c1)c1ccc(C(=O)NCCS(C)(=O)=O)c(C)c1 (single isomer, unassigned) [Ex. 15A, 4-{1-ethyl-1-[4-(2-hydroxy-3,3-dimethylbutoxy)-3-methylphenyl]propyl}-N-(2-methanesulfonylethyl)-2-methylbenzamide]
pEC50 [3]: 7.46 and 7.37 | Mouse Hypercal [1]: 1500 µg/kg/day | pIC50 [2, 4]: 6.93

CCC(CC)(c1ccc(CNCCS(C)(=O)=O)c(C)c1)c1ccc(OCC(=O)C(C)(C)C)c(C)c1 [Ex. 13, 1-[4-(1-ethyl-1-{4-[(2-methanesulfonyl-ethylamino)-methyl]-3-methyl-phenyl}-propyl)-2-methyl-phenoxy]-3,3-dimethyl-butan-2-one]
pEC50 [3]: 6.78 | pEC50 ([3]; Rattus norvegicus, 48 h): 7.05 | Mouse Hypercal [1]: 3000 µg/kg/day

CCC(CC)(c1ccc(/C=C/C(=O)N(C)C)c(C)c1)c1ccc(OCC(O)C(C)(C)C)c(C)c1 (centres unmarked) [Ex. 9, 3′-[4-(2-hydroxy-3,3-dimethylbutoxy)-3-methylphenyl]-3′-[4-(2-dimethylcarbamoyl-t-ethylidene)-3-methylphenyl]pentane]
pEC50 [3]: 8.22 | pEC50 ([3]; Rattus norvegicus, 48 h): 8.15 | pIC50 [2, 4]: 6.01
